In US11506670B2, “Method of genome-wide direct identification of electrophile-sensing targets” (Cornell University, priority 2018, dated 2022):
Where a SMILES comes first, the peptide text is derived from it. The star is where a group is joined. Cbz = O=C(OCc1ccccc1)*

Columns and labels:
[1] = Chemical stability of HNE(alkyne); assay type: physicochemical; settings: air
Procedure: (iv) Isolate the pure product via flash chromatography using hexanes: Et20 (4:1 v/v) as eluent (Rf=0.5 in hexanes: Et2O 4:1). […] The purified material should be characterized promptly and during this time may be stored under Ar at room temperature. For long-term storage, HNE(alkyne) should be stored as one-shot aliquots in DMSO at −80° C. and must be used immediately once thawed.

[2] = test system: γ-H2AX; assay: T-REX in zebrafish embryos, whole-mount γ-H2AX immunofluorescence; assay type: in vivo, zebrafish (Danio rerio); settings: 3 h post light exposure
Procedure: (§1) Fertilized eggs at the 1-2 cell stage from casper zebrafish were injected with mRNA (1.6 mg/ml) into the yolk sack. Immediately after injection, embryos were pooled, and separated into two petri dishes (10 cm) filled with 30 mL 10% Hank's salt solution with methylene blue and penicillin (100 U/mL)/streptomycin (100 μg/ml). To one set was added the HaloTag-targetable photocaged precursor to HNE (Ht-PreHNE, hereafter) (<15 μM) and the other DMSO in the dark. Embryos were maintained at 28° C. in the dark for 28 h then they were washed in 10% Hank's solution with no methylene blue/antibiotic (3 times for 30 min each). Embryos were moved to 6-well plates. Half of the embryos (Ht-preHNE-treated or -untreated) were irradiated with UV light (5 min), and the other half of each set was not irradiated. Embryos were left for 8 h at which point they were euthanized, washed with cold 1×DPBS and dechorionated (and deyolked if protein analysis was to be undertaken).
DDR preconditioning occurs in zebrafish embryos. […] Subsequently, the fish were fixed and γ-H2AX levels were measured using whole-mount immunofluorescence.

[3] = target: T1, PTEN (Homo sapiens, UniProt P60484); assay: InPAkt FRET biosensor assay of PIP3 after PTEN-targeted T-REX; assay type: cell-based
T1 construct: host or cells: HEK-293
T1 sequence (P60484 whole entry): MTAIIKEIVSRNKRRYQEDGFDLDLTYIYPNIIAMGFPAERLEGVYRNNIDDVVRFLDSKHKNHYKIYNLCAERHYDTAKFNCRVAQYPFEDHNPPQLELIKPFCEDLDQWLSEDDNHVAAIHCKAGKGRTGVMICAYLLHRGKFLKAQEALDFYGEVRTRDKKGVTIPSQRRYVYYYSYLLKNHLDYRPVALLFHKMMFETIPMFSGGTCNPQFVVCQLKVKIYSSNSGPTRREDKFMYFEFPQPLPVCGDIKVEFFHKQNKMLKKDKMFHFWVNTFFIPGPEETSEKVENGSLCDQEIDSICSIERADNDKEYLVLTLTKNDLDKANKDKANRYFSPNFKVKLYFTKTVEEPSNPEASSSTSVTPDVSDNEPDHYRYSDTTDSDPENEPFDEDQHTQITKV
Procedure: (ii) Transfect each plate with 1000 ng of Halo-PTEN and 1000 ng of InPAkt reporter plasmid. Transfect with TransIT-2020 following the manufacturer's protocol.
(iv) Treatment of cells with T-REX™ delivery photocaged precursor, photo-uncaging and cell fixing. Treat the cells with photocaged precursor as described in Section 2, Step 39A. The amounts of reagents used should be scaled up for 4×35 mm adherent culture dish.
(v) Irradiate the cells with UV light only for 3 min. After shining light on the sample. Incubate the plates at 37° C. for 10 hours. Longer irradiation time will result in photobleaching of the FRET reporter proteins.
(vi) Imaging and data analysis. […] Blue laser (408 nm) is used for excitation. Record the signals in cyan channel (463-498 nm) and yellow channel (525-620 nm).
(vii) Analyse the images using ImageJ software (NIH). To do this, determine the average cyan and yellow fluorescence intensity for each cell by drawing a free hand circle around the image. Repeat this for each condition such that 150-200 cells were analyzed each time from multiple different frames. Calculate the ratio of mean yellow to mean cyan fluorescence intensity for each condition, then plot these values and analyse the results using prism. To get reliable results, it is important to collect images from at least 150 individual cells per condition.

[4] = test system: Ube2V2 ubiquitination and cellular Ub pools; assay: Ubiquitination analysis by IP, K63-TUBE pulldown and western blot in HEK293T cells; assay type: cell-based, human; settings: for amount of ubiquitinated-Ube2V2 formed upon targeted-HNEylation: proteasome inhibitor treatment with T-REX
Procedure: Cells were lysed in 1×RIPA buffer containing in final concentrations 1× Protease inhibitor, 1 mM sodium orthovanadate and 1 mM PMSF, by rapid freeze-thaw (×3). Cell debris was removed and the supernatant was collected after centrifugation at 18,000×g for 20 min at 4° C. Protein concentration was determined using Bradford assay. 30-50 μg of total lysates were subjected to SDS-PAGE and the gel was transferred onto a PVDF membrane at 100 V for 1 h at 4° C. or at 40 V overnight at 4° C. Membrane was blocked with 10% milk and probed with various antibodies at the indicated dilutions (Table 4, above).
HEK 293T cells were seeded in 2×60 cm^2 plates. After the cells reached 60% confluence (˜18-24 h), the old media was replaced with 8 mL of fresh complete media. Cells were transfected with 7.5 μg of the designated Halo clone and 30 μL PEI (1 mg/mL) in 600 μL in Opti-MEM media for 24-36 h after which the cells were treated with 25 μM Ht-PreHNE for 2.5 h. Rinsing and light shining protocol were as described above. Cells were harvested, pooled, washed twice with chilled 1×DPBS and flash frozen. Cell lysis was performed in 100-200 μL per 1.5×10^6 cells of either: lysis buffer [containing in final concentrations 50 mM HEPES (pH 7.6), 150 mM NaCl, 1% Nonidet P-40 and 1× Roche cOmplete, mini, EDTA-free protease inhibitor cocktail] for Flag pull down; or RIPA buffer [containing in final concentrations 50 mM HEPES (pH 7.6), 150 mM NaCl, 1% Nonidet P-40, 0.1% SDS, 0.25% sodium deoxycholate, and 1× Roche cOmplete, mini, EDTA-free protease inhibitor cocktail] for HA pull down, followed by rapid freeze-thaw cycles (×3). Lysate was clarified by centrifugation at 18,000×g for 10 min at 4° C. Total protein concentration was determined using Bradford assay with BSA as standard. The lysate was subsequently diluted to 2 mg/mL with binding buffer containing in final concentrations 50 mM HEPES (pH 7.6), 150 mM NaCl, 1× Roche cOmplete, mini, EDTA-free protease inhibitor cocktail, and 0.1% Tween-20. This diluted lysate was subjected to either 50-100 μL bed volume of ANTI-FLAG® M2 affinity gel (A2220, Sigma) or monoclonal anti-HA-agarose (clone HA-7, A2095, Sigma) that had been pre-equilibrated with the binding buffer above. The sample was incubated with beads for 2-3 h at 4° C. by end-over-end rotation after which time the supernatant was removed post-centrifugation at 1000×g (anti-FLAG pull down) or 5000×g (anti-HA pull down) for 3 min. The beads were washed three times at 4° C. with 500 μL wash buffer containing in final concentrations 50 mM HEPES (pH 7.6), 150 mM NaCl, 1× Roche cOmplete, mini, EDTA-free protease inhibitor cocktail, and 0.1% Tween-20, using end-over-end rotation over 10 min during each wash. The bound protein was eluted by either incubating with 0.15 mg/mL 3× flag peptide for 2 h at 4° C. (anti-Flag pull down) or by boiling the beads at 98° C. for 10 min with 30 μL of 3× Laemmeli dye containing 6% βME (anti-HA pull down). The sample was subjected to SDS-PAGE and transferred to a PVDF membrane for western blot analysis described above.
Cells were grown and transfected as described above. After T-REX™ delivery, cells were harvested and lysed in 100-200 μL (˜1.5×10^6 cells) of lysis buffer [containing in final concentrations 50 mM HEPES (pH 7.6), 300 nM Biotin K63-TUBE, 150 mM NaCl, 5 mM EDTA, 3 mM 1,10-phenanthroline, 5 mM NEM, 20 μM PR-619, 1% Nonidet P-40 and 1× Roche cOmplete, mini, EDTA-free protease inhibitor cocktail] according to manufactures' manual (Biotin K63 TUBE, Lifesensors). Lysate was clarified by centrifugation at 18,000×g for 10 min at 4° C. Total protein concentration was determined using Bradford assay using BSA as standard. […]

[5] = test system: zebrafish embryos; assay: Zebrafish embryo morphology and survival, stereomicroscope; assay type: in vivo, zebrafish (Danio rerio)
Description: Fish were then dechorionated, deyolked, lysed and HNEylated proteins were captured by Click coupling with biotin-azide and subsequent streptavidin pulldown (see workflow in FIG. 4A, Clicking with biotin-azide). HNEylation of Ube2V2 in fish also led to polyubiquitination of Ube2V2, indicating mechanistic conservation between fish and humans, and functional relevance of this electrophile regulatory pathway in vivo. Also see FIG. 14C. […] After 36-h fish were dechorionated and imaged using a stereomicroscope. Scale bars, 545 μm.
as §1, with “Embryos were left for 8 h at which point they were euthanized, washed with cold 1×DPBS and dechorionated (and deyolked if protein analysis was to be undertaken).” left out

[6] = test system: γ-H2AX; assay: γ-H2AX immunofluorescence in HEK293T cells; assay type: cell-based, human
Procedure: Cells were grown to 70% confluence in 35 mm glass-bottomed dishes and transfected with HaloTagged plasmids. T-REX™ delivery was performed as mentioned above. […] The fixative was aspirated and the cells washed three times with 1×DPBS with 5-min incubation at room temperature. Blocking and permeabilization was performed in one-step by incubation at 37° C. for 1 h in 1×DPBS containing 3% BSA and 0.2% Triton X-100. Cells were subsequently incubated with primary antibody (1:300, Table 4) in incubation buffer (1% BSA, 0.02% Triton X-100 in 1×DPBS) for 2 h at room temperature. Cells were rinsed 3 times with 1×DPBS with 5 min incubation for each wash and subsequently incubated in dark for 1 h at room temperature with corresponding second antibody (1:1000, Table 4) in incubation buffer. Cells were rinsed 3 times with 1×DPBS with 5 min incubation for each rinse. DAPI (Sigma) was freshly prepared in 1×DPBS from 2 mg/mL wt./v stock solution in water and added to the wells at the final concentration of 0.2 μg/mL. The samples were incubated in dark for 1 min and washed once with 1×DPBS and stored at 4° C. in dark till images were taken using a Zeiss LSM 710 meta confocal fluorescence microscope. Image analysis was performed using Image-J (NIH).

[7] = test system: Ube2N; assay: Lentiviral shRNA knockdown of Ube2N, western blot; assay type: cell-based, human
Procedure: HEK293T packaging cells were seeded and grown overnight in antibiotic free media in 6 well plates. At 80% confluence, each well was transfected with packaging plasmid (pCMV-R8.74psPAX2, 500 ng), envelope plasmid (pCMV-VSV-G, 50 ng) and pLKO vector (500 ng) using TransIT.LT1 as per the manufacturer's protocol. After 18 h, media were removed and replaced with 20% serum containing media. After 24 h, media containing viruses were collected, spun down and passed through a 0.6 micron filter and stored at −80° C. or used directly.
Cells in log phase were treated with 0.6 ml of virus supernatant (from above) in 8 μg/ml polybrene in a total of 6 ml of media in a 6-well plate. After 24 h, media were removed and replaced with media containing 2 μg/ml puromycin (which was completely toxic to all lines used in this study). Cells were cultured until the plate was confluent, then cells were split and moved to a 10 cm dish in 2 μg/ml puromycin containing media and grown again until reaching confluence. At this, the line was considered to be “selected”, and target gene expression was analyzed by western blot and compared to shRNA controls. […]
Cells were lysed in 1×RIPA buffer containing in final concentrations 1× Protease inhibitor, 1 mM sodium orthovanadate and 1 mM PMSF, by rapid freeze-thaw (×3). […] Protein concentration was determined using Bradford assay. […]

**Q.** Which stability [1] does the source give for `C#CCCCC(O)C=CC=O` (stereo not drawn) [HNE(alkyne), 4-hydroxynonenal alkyne] here?
**A.** The stability was “highly unstable to air-oxidation and polymerization”.

**Q.** What does the source list for `C#CCCCC(O)/C=C/COc1c(CC(=O)NCCOCCOCCCCCCCl)ccc2c1C(=O)c1ccccc1C2=O` (stereo not drawn) [Ht-PreHNE]?
**A.** γ-H2AX levels in zebrafish embryos [2]: regulates γ-H2AX levels in zebrafish; FRET signal ([3]; T-REX on Halo-PTEN vs light alone): selectively enhances FRET signal; YFP:CFP emission ratio ([3]; precursor treatment alone, no light): did not perturb the emission ratio significantly

**Q.** Which results are given for `CC(C)C[C@@H](C=O)NC(=O)[C@H](CC(C)C)NC(=O)[C@H](CC(C)C)NC(=O)OCc1ccccc1` [MG132] (Cbz-Leu-Leu-Leu-aldehyde)?
**A.** pan cellular poly-Ub-pools ([4]; HEK293T): elevated pan-Ub-pools; amount of ubiquitinated-Ube2V2 formed upon targeted-HNEylation [4]: had no effect on the amount of ubiquitinated-Ube2V2

**Q.** Which “embryo deformity / death” value [5] does the source give for `CO[C@@]12[C@H](COC(N)=O)C3=C(C(=O)C(C)=C(N)C3=O)N1C[C@@H]1N[C@@H]12` [Mitomycin-C] here?
**A.** Its value is “severely deformed or died during treatment”.

**Q.** What about the “γ-H2AX levels in zebrafish embryos” value [2] of the same compound?
**A.** The value was “high level of γ-H2AX-expression relative to untreated fish”.

**Q.** What about the “γ-H2AX in Ube2V2-C69S-expressing and Ube2N-deficient cells” value [6] of the same compound?
**A.** Its value is “still upregulated γ-H2AX”.

**Q.** And the γ-H2AX upregulation ([6]; positive control)?
**A.** Its γ-H2AX upregulation is 3-4 fold.

**Q.** Which results are given for `N#CSc1cc(SC#N)c(N)nc1N` [PR-619]?
**A.** K63-linked total cellular Ub pools ([4]; HEK293T): promoted elevation of K63-ubiquitination; ubiquitination of Ube2V2 wt vs C69S ([4]; HEK293T): promote ubiquitination of Ube2V2(C69S) as efficiently as wt-Ube2V2

**Q.** Which “pan cellular poly-Ub-pools” value ([4]; HEK293T) does the source give for `CC(C)C[C@H](NC(=O)[C@H](Cc1ccccc1)NC(=O)c1cnccn1)B(O)O` [bortezomib] here?
**A.** Its value is “elevated pan-Ub-pools”.

**Q.** What about the “amount of ubiquitinated-Ube2V2 formed upon targeted-HNEylation” value [4] of the same compound?
**A.** The value was “had no effect on the amount of ubiquitinated-Ube2V2”.

**Q.** Which Ube2N knockdown strength [7] does the source give for “#18: shRNA targeting Ube2N in pLKO1 vector (SEQ ID NO: 65) (CCGGGCTGAGGCATTTGTGAGTCTTCTCGAGAAGACTCACAAATGCCTCAGCTTTTT)” here?
**A.** The Ube2N knockdown strength was “weaker knockdown”.
